37 molecules from ChEMBL document CHEMBL5375984, “Development of Ligands for the Super Conserved Orphan G Protein-Coupled Receptor GPR27 with Improved Efficacy and Potency” (J Med Chem, 2023) can be followed below.

Experiment [1] addresses T1, GPR27-V2 (Homo sapiens, UniProt P30518+Q9NS67). Briefly: Agonist activity at CLuc-tagged human GPR27-V2 expressed in HEK293 cells incubated for 10 mins by beta-arrestin 2 recruitment based firefly luciferase complementation assay.
For experiment [2], the target named is T1, GPR27-V2. Put plainly: Agonist activity at CLuc-tagged human GPR27-V2 expressed in HEK293 cells incubated overnight by beta-arrestin 2 recruitment based firefly luciferase complementation assay.
Experiment [3] deals with Probable G-protein coupled receptor 27 (Homo sapiens, UniProt Q9NS67). Briefly: Agonist activity at CLuc-tagged human GPR27 expressed in HEK293 cells incubated for 10 mins by beta-arrestin 2 recruitment based firefly luciferase complementation assay. A general note: Activated receptors often draw arrestin, which recruitment assays turn into a signal.
Sequence of Probable G-protein coupled receptor 27 (Q9NS67 whole entry): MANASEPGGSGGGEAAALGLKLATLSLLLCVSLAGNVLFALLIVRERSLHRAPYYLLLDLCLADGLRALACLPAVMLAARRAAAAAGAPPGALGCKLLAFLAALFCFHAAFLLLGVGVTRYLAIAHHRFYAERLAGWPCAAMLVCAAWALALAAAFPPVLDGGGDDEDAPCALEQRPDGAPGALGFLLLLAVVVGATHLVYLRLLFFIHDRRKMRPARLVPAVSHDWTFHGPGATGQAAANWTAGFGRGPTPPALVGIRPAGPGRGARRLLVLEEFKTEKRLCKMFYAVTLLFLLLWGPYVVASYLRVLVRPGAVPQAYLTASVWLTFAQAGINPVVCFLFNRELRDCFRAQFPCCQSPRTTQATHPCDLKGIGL

Structures are written as SMILES. A value given as a limit tells only on which side of the number the result lay.

T1 sequence (P30518 whole entry): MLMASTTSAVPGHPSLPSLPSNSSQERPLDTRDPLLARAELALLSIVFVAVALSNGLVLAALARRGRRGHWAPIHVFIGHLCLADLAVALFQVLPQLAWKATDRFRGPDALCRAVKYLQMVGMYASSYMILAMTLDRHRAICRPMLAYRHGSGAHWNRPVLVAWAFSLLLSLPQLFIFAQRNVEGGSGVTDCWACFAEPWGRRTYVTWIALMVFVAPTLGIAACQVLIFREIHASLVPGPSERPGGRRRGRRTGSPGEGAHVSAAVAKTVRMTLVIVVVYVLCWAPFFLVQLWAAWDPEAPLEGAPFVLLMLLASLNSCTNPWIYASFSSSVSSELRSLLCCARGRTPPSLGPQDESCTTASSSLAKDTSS
T1 sequence (Q9NS67 whole entry): as the sequence (Q9NS67 whole entry) above

As to `NS(=O)(=O)c1ccc(NC(=O)c2ccc(Br)cc2Br)cc1`, the EC50 on GPR27-V2 [1] was greater than 100000 nM. `O=C(Nc1ccc(S(=O)(=O)Nc2nccs2)cc1)c1ccc(Cl)cc1Cl` showed an EC50 on GPR27-V2 [2] of 661 nM.

In the case of `O=C(Nc1ccc(S(=O)(=O)Nc2ccccc2)cc1)c1ccc(Cl)cc1OC(F)(F)F`, the EC50 in experiment [3] is greater than 31600 nM; on GPR27-V2 [1], 195 nM. In the case of `Cc1cc(Cl)c(C(=O)Nc2ccc(S(=O)(=O)Nc3ccccc3)cc2)cc1Cl`, in experiment [3], the EC50 is 363 nM. For `CN(C)S(=O)(=O)c1ccc(NC(=O)c2ccc(Cl)cc2Cl)cc1`, the half-maximal effective concentration (EC50) at GPR27-V2 [1] was greater than 100000 nM.

For `O=C(Nc1ccc(S(=O)(=O)Nc2ccccc2)cc1)c1cc(Cl)c(Cl)cc1Cl`, in experiment [3], the response was half-maximal at 589 nM (EC50). On to `O=C(Nc1ccc(S(=O)(=O)Nc2ccccc2)cc1)c1ccc(C(F)(F)F)cc1Cl`, for which the EC50 in experiment [3] is 6760 nM; at GPR27-V2 [1] it was 3890 nM. `Cc1nnc(NS(=O)(=O)c2ccc(NC(=O)c3ccc(Cl)cc3Cl)cc2)s1` displayed a concentration for a half-maximal effect (EC50) at GPR27-V2 [1] greater than 100000 nM. `O=C(Nc1ccc(S(=O)(=O)Nc2ccccc2)cc1)c1c(Cl)cc(Cl)cc1Cl` had an EC50 in experiment [3] greater than 31600 nM.

In the case of `Cc1cc(NS(=O)(=O)c2ccc(NC(=O)c3ccc(Cl)cc3Cl)cc2)no1`, the EC50 on GPR27-V2 [1] is greater than 100000 nM.

In turn, `O=C(/C=C/c1ccc(Cl)cc1Cl)Nc1ccc(S(=O)(=O)Nc2ccccc2)cc1` showed a concentration for a half-maximal effect (EC50) at GPR27-V2 [1] greater than 100000 nM. Consider `COc1ccc(C(=O)Nc2ccc(S(=O)(=O)Nc3ccccc3)cc2)c(C)c1`, for which the figures for the EC50 (in experiment [3]; at GPR27-V2 [1]) were greater than 31600 nM and greater than 100000 nM, respectively. In experiment [3], `Cc1cc(C(=O)Nc2ccc(S(=O)(=O)Nc3ccccc3)cc2)c(Cl)cc1Cl` gave an EC50 of 372 nM. For the molecule `O=C(Nc1ccc(S(=O)(=O)Nc2ccccc2)cc1)c1ccc(Cl)cc1Cl`, the 50% effective concentration (EC50) on GPR27-V2 [2] was 417 nM; in experiment [3] it was 6610 nM; at GPR27-V2 [1], 7410 nM. At GPR27-V2 [1], `CNS(=O)(=O)c1ccc(NC(=O)c2ccc(Br)cc2Br)cc1` returned an EC50 greater than 100000 nM. Take `COc1ccc(C(=O)Nc2ccc(S(=O)(=O)Nc3ccccc3)cc2)c(Cl)c1`: the values for the EC50 (in experiment [3]; at GPR27-V2 [1]) were greater than 31600 nM and 8130 nM, respectively.

Regarding `N#Cc1cc(Cl)c(C(=O)Nc2ccc(S(=O)(=O)Nc3ccccc3)cc2)c(Cl)c1`, the EC50 in experiment [3] was greater than 31600 nM. On to `CS(=O)(=O)c1ccc(NC(=O)c2ccc(Cl)cc2Cl)cc1`, for which the EC50 on GPR27-V2 [1] is 38000 nM. As to `O=C(Nc1ccc(S(=O)(=O)Nc2ccccc2)cc1)c1ccc(F)cc1F`, the EC50 in experiment [3] is 447 nM; at GPR27-V2 [1], 3890 nM.

In the case of `O=C(Nc1ccc(S(=O)(=O)Nc2ccccc2)cc1)c1ccc(C(F)(F)F)cc1Br`, the concentration giving a half-maximal response (EC50) in experiment [3] is 245 nM; at GPR27-V2 [1], 6920 nM. Turning to `Cc1cc(Br)c(F)cc1C(=O)Nc1ccc(S(=O)(=O)Nc2ccccc2)cc1`, in experiment [3], the EC50 was 562 nM. Still for that read-out and setting: the same measure for `O=C(Nc1ccc(S(=O)(=O)Nc2ccccc2)cc1)c1cc2ccccc2cc1Cl`: 955 nM; for `Cc1cc(C(=O)Nc2ccc(S(=O)(=O)Nc3ccccc3)cc2)c(C)cc1Cl`: 275 nM. With `O=C(Nc1ccc(S(=O)(=O)O)cc1)c1ccc(Cl)cc1Cl`, at GPR27-V2 [1], the EC50 was greater than 100000 nM. Still for that read-out and setting: the same measure for `CC(=O)NS(=O)(=O)c1ccc(NC(=O)c2ccc(Cl)cc2Cl)cc1`: greater than 100000 nM.

For `O=C(Nc1ccc(S(=O)(=O)Nc2ccccc2)cc1)c1ccc(C(F)(F)F)cc1C(F)(F)F`, the 50% effective concentration (EC50) was greater than 31600 nM in experiment [3] and 550 nM on GPR27-V2 [1]. For the molecule `O=C(Nc1ccc(S(=O)(=O)Nc2ccccc2)cc1)c1cc(F)c(Cl)cc1Cl`, in experiment [3], the EC50 was 380 nM. As to `O=C(Nc1ccc(S(=O)(=O)Nc2ccccc2)cc1)c1ccc(Br)cc1Br`, the EC50 in experiment [3] was 1230 nM; on GPR27-V2 [1] it was 3240 nM. On the same counts, the results for `N#Cc1ccc(C(=O)Nc2ccc(S(=O)(=O)Nc3ccccc3)cc2)c(Cl)c1` are 977 nM and 5890 nM. Turning to `O=C(Nc1ccc(S(=O)(=O)Nc2cnc3ccccc3n2)cc1)c1ccc(Cl)cc1Cl`, at GPR27-V2 [1], the EC50 was greater than 100000 nM.

`Cc1cc(Cl)c(C(=O)Nc2ccc(S(=O)(=O)Nc3ccccc3)cc2)cc1F` came in with a 50% effective concentration (EC50) in experiment [3] greater than 31600 nM.

In experiment [3], `O=C(Nc1ccc(S(=O)(=O)Nc2ccccc2)cc1)c1ccc(Cl)c(Cl)c1Cl` had a concentration for a half-maximal effect (EC50) of 631 nM. On the same count and under the same terms, the same measure for `Cc1cc(C(=O)Nc2ccc(S(=O)(=O)Nc3ccccc3)cc2)c(C)cc1Br`: 126 nM. For the molecule `COc1cc(Cl)ccc1C(=O)Nc1ccc(S(=O)(=O)Nc2ccccc2)cc1`, the half-maximal effective concentration (EC50) was 204 nM in experiment [3] and 977 nM at GPR27-V2 [1]. For the molecule `Cc1onc(NS(=O)(=O)c2ccc(NC(=O)c3ccc(Cl)cc3Cl)cc2)c1C`, the 50% effective concentration (EC50) on GPR27-V2 [1] was greater than 100000 nM. In experiment [3], `Cc1cc(C(=O)Nc2ccc(S(=O)(=O)Nc3ccccc3)cc2)c(F)cc1Br` showed an EC50 of 2140 nM. The same measure, in the same setting: the same measure for `Cc1cc(Cl)c(Cl)cc1C(=O)Nc1ccc(S(=O)(=O)Nc2ccccc2)cc1`: 263 nM.

The term EC50 denotes the concentration that produces a half-maximal response. High values mean a less potent agent, low ones a more potent agent.
